Experimental findings from patent publication US10124004B2, “Pyrido[3,4-d]pyrimidine derivative and pharmaceutically acceptable salt thereof” (Teijin Pharma Limited, priority 2015, dated 2018) are described below.

For one assay, the target named is T1, CDK4/cyclin D3 (Homo sapiens, UniProt P11802).
T1 construct: purchased Carna Biosciences, Inc. QS S Assist CDK4/Cyclin D3_FP Kit
Kind of assay: Human CDK4/cyclin D3 inhibitory activity (QS S Assist CDK4/Cyclin D3_FP Kit, IMAP fluorescence polarization). It is filed as biochemical. The method in brief:
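IMAP fluorescence polarization kit: CDK4/cyclin D3 at 12.5-25 ng/well with kit ATP/substrate/metal mix in 20 mM HEPES pH 7.4, 0.01% Tween20, 2 mM DTT, 45 min at room temperature. FP read at 485/535 nm after 30 min binding; IC50 from dose-response fit of percent inhibition versus enzyme and no-enzyme controls.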
On the technique in general: Fluorescence polarisation rises when a labelled molecule tumbles more slowly, as on binding a larger partner.

The next assay addresses T2, CDK2/cyclin A2 (Homo sapiens, UniProt P24941).
T2 construct: purchased Carna Biosciences, Inc. QS S Assist CDK2/Cyclin A2_FP Kit
Kind of assay: Human CDK2/cyclin A2 inhibitory activity (QS S Assist CDK2/Cyclin A2_FP Kit, IMAP fluorescence polarization). It is filed as biochemical. An outline of the steps: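 Kinase activity read as fluorescence polarization (485/535 nm) after phosphorylated fluorescent substrate binds IMAP reagent (30 min, RT, dark). Enzyme (2.5 ng/well) reacted 60 min at RT with ATP/substrate/metal in HEPES pH 7.4 buffer with Tween 20 and DTT; no-enzyme wells define 0% activity; IC50 by curve fit.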

The mark [1] stands for this setting: Human CDK4/cyclin D3 inhibitory activity, read-out: CDK4 Activity symbol.
Setting [2] is: Human CDK2/cyclin A2 inhibitory activity, read-out: CDK2 Activity symbol.
Setting [3] is: 50% inhibitory concentration against CDK4/cyclin D3, given as class symbol.
[4] abbreviates: 50% inhibitory concentration against CDK2/cyclin A2, given as class symbol.

Molecules are shown by their SMILES. Like-named read-outs stand apart in the source and are kept apart here.

T1 sequence (P11802 whole entry): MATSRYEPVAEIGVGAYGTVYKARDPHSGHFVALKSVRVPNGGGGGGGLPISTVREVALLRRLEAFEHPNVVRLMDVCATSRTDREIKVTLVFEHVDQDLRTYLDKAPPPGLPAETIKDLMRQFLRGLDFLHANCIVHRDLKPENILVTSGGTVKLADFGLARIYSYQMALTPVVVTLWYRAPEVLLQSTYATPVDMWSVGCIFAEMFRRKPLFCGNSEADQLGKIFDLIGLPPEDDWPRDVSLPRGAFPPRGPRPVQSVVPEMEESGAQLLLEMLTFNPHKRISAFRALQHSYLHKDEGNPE
T1 sequence (P30281 whole entry partner): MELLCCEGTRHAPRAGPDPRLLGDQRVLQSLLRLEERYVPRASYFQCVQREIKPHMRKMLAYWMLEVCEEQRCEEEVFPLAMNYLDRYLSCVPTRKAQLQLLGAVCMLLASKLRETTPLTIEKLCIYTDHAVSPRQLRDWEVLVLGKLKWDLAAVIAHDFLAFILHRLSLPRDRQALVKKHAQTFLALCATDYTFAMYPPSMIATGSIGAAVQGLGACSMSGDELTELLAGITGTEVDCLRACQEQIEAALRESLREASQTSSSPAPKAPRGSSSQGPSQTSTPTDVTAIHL

As to `CNC1CCN(c2ccc(Nc3ncc4cc(C(C)O)nc(NC(C)C)c4n3)nn2)CC1F` (centres unmarked) [Compound 609], the IC50 at CDK4/cyclin D3 (setting [1]) is less than 10 nM; on CDK2/cyclin A2 (setting [2]) it was no less than 100 nM.
Taken in the same sequence, the figures for `CNC1CCN(c2ccc(Nc3ncc4cc(C(C)O)nc(NC(C)C)c4n3)nn2)CC1F` (centres unmarked) [Compound 610] were less than 10 nM and no less than 100 nM.
As for `CC(C)Nc1nc([C@@H](C)O)cc2cnc(Nc3ccc(N4CC5(CC(N(C)C)C5)C4)nn3)nc12` [Compound 611], the IC50 at CDK4/cyclin D3 (setting [1]) was less than 10 nM; on CDK2/cyclin A2 (setting [2]) it was no less than 100 nM.
On the same counts, the results for `C[C@@H](O)c1cc2cnc(Nc3ccc(N4CCNCC4=O)cn3)nc2c(N[C@H]2CC[C@H](C)CC2)n1` [Compound 612] are less than 10 nM and 10 to 100 nM.
Taken in the same sequence, the figures for `CC(C)Nc1nc([C@@H](C)O)cc2cnc(Nc3ccc(SCCN(C)C)nn3)nc12` [Compound 614] were less than 10 nM and no less than 100 nM.
Taken in the same sequence, the figures for `CC(C)Nc1nc([C@@H](C)O)cc2cnc(Nc3ccc(CC(=O)N4CCN(C(C)C)CC4)cn3)nc12` [Compound 615] were less than 10 nM and no less than 100 nM.
Turning to `CC(C)Nc1nc(C(C)O)cc2cnc(Nc3ccc(N4CCC(N)C(F)C4)nn3)nc12` (centres unmarked) [Compound 618], the IC50 at CDK4/cyclin D3 (setting [1]) was less than 10 nM; on CDK2/cyclin A2 (setting [2]), no less than 100 nM.
Turning to `CC(C)Nc1nc(C(C)O)cc2cnc(Nc3ccc(N4CCC(N)C(F)C4)nn3)nc12` (centres unmarked) [Compound 619], the IC50 was less than 10 nM on CDK4/cyclin D3 (setting [1]) and no less than 100 nM on CDK2/cyclin A2 (setting [2]).
In the case of `CC(C)Nc1nc(C(C)O)cc2cnc(Nc3ccc(N4CCC(N(C)C)C(F)C4)nn3)nc12` (centres unmarked) [Compound 621], the values for the IC50 at CDK4/cyclin D3 (setting [1]) and at CDK2/cyclin A2 (setting [2]) were less than 10 nM and no less than 100 nM, respectively.
Taken in the same sequence, the figures for `CC(C)Nc1nc(C(C)O)cc2cnc(Nc3ccc(N4CCC(N(C)C)C(F)C4)nn3)nc12` (centres unmarked) [Compound 622] were less than 10 nM and no less than 100 nM.
Taken in the same sequence, the figures for `CC(C)Nc1nc([C@@H](C)O)cc2cnc(Nc3ccc(N4C(=O)CN5CCC4CC5)cn3)nc12` [Compound 623] were less than 10 nM and 10 to 100 nM.
On the same counts, the results for `C[C@@H](O)c1cc2cnc(Nc3ccc(N4CCNCC4=O)cn3)nc2c(N[C@H]2CC[C@@H](C)CC2)n1` [Compound 624] are less than 10 nM and no less than 100 nM.
As to `CC(C)Nc1nc([C@@H](C)O)cc2cnc(Nc3ccc(N4CCN(CC(C)(C)O)CC4)nn3)nc12` [Compound 625], the IC50 at CDK4/cyclin D3 (setting [1]) is less than 10 nM; at CDK2/cyclin A2 (setting [2]) it was no less than 100 nM.
On the same counts, the results for `CC(C)Nc1nc([C@@H](C)O)cc2cnc(Nc3ccc(CN4CCN(CC(C)(C)O)CC4)cn3)nc12` [Compound 626] are less than 10 nM and no less than 100 nM.
On to `CC(C)Nc1nc([C@@H](C)O)cc2cnc(Nc3ccc(N4CCN(CC(C)(C)O)CC4=O)cn3)nc12` [Compound 627], for which the IC50 was less than 10 nM against CDK4/cyclin D3 (setting [3]) and no less than 100 nM against CDK2/cyclin A2 (setting [4]).
Taken in the same sequence, the figures for `COC1CCC(Nc2nc([C@@H](C)O)cc3cnc(Nc4ccc(OCCN(C)C)cn4)nc23)CC1` (some centres unmarked) [Compound 628] were less than 10 nM and no less than 100 nM.
Take `C[C@@H](O)c1cc2cnc(Nc3ccc(OCCN(C)C)cn3)nc2c(N[C@H]2CCCOC2)n1` [Compound 629]: the IC50 on CDK4/cyclin D3 (setting [3]) was less than 10 nM; at CDK2/cyclin A2 (setting [4]), no less than 100 nM.
As to `CC(C)Nc1nc([C@@H](C)O)cc2cnc(Nc3ccc(N4CCCC5(CCCN5)C4=O)cn3)nc12` (some centres unmarked) [Compound 630], the figures for the IC50 against CDK4/cyclin D3 (setting [3]) and at CDK2/cyclin A2 (setting [4]) were less than 10 nM and no less than 100 nM, respectively.
Taken in the same sequence, the figures for `CC(C)Nc1nc([C@@H](C)O)cc2cnc(Nc3ccc(N4CCN(C(C)C)CCC4=O)cn3)nc12` [Compound 631] were less than 10 nM and 10 to 100 nM.
Taken in the same sequence, the figures for `CC(C)CN1CCC(=O)N(c2ccc(Nc3ncc4cc([C@@H](C)O)nc(NC(C)C)c4n3)nc2)CC1` [Compound 632] were less than 10 nM and no less than 100 nM.
Consider `CC(C)Nc1nc([C@@H](C)O)cc2cnc(Nc3ccc(CN4CCN(C(C)C)CC4)cn3)nc12` [Compound 633], for which the IC50 is less than 10 nM against CDK4/cyclin D3 (setting [3]) and no less than 100 nM on CDK2/cyclin A2 (setting [4]).
On the same counts, the results for `CNCCOc1ccc(Nc2ncc3cc([C@@H](C)O)nc(NC4CCC(C)(C)OC4)c3n2)nc1` (some centres unmarked) [Compound 634] are less than 10 nM and no less than 100 nM.
On the same counts, the results for `CNCCOc1ccc(Nc2ncc3cc([C@@H](C)O)nc(N[C@H]4CCCOC4)c3n2)nc1` [Compound 635] are less than 10 nM and no less than 100 nM.
Taken in the same sequence, the figures for `CC(O)CN1CCN(c2ccc(Nc3ncc4cc([C@@H](C)O)nc(NC(C)C)c4n3)nc2)C(=O)C1` (some centres unmarked) [Compound 636] were less than 10 nM and no less than 100 nM.
For the molecule `CC(O)CN1CCN(c2ccc(Nc3ncc4cc([C@@H](C)O)nc(NC(C)C)c4n3)nn2)CC1` (some centres unmarked) [Compound 637], the IC50 against CDK4/cyclin D3 (setting [3]) was less than 10 nM; on CDK2/cyclin A2 (setting [4]), no less than 100 nM.
On the same counts, the results for `CC(O)CN1CCN(Cc2ccc(Nc3ncc4cc([C@@H](C)O)nc(NC(C)C)c4n3)nc2)CC1` (some centres unmarked) [Compound 638] are less than 10 nM and no less than 100 nM.
On the same counts, the results for `C[C@@H](O)c1cc2cnc(Nc3ccc(N4CCN(C)CC4)nn3)nc2c(NC2CCC(C)(C)OC2)n1` (some centres unmarked) [Compound 639] are less than 10 nM and no less than 100 nM.
Taken in the same sequence, the figures for `C[C@@H](O)c1cc2cnc(Nc3ccc(N4CCN(C)CC4)nn3)nc2c(N[C@H]2CCCOC2)n1` [Compound 640] were less than 10 nM and no less than 100 nM.
`COC1CCC(Nc2nc([C@@H](C)O)cc3cnc(Nc4ccc(N5CCN(C)CC5)nn4)nc23)CC1` (some centres unmarked) [Compound 641]: the IC50 is less than 10 nM at CDK4/cyclin D3 (setting [3]) and no less than 100 nM against CDK2/cyclin A2 (setting [4]).
On the same counts, the results for `CC(C)Nc1nc([C@@H](C)O)cc2cnc(Nc3ccc(N4CCN5CCCC5C4=O)cn3)nc12` (some centres unmarked) [Compound 642] are less than 10 nM and no less than 100 nM.
Consider `CC(C)Nc1nc([C@@H](C)O)cc2cnc(Nc3ccc(N4CCN(CC(C)(C)O)CCC4=O)cn3)nc12` [Compound 643], for which the IC50 against CDK4/cyclin D3 (setting [3]) is less than 10 nM; against CDK2/cyclin A2 (setting [4]) it was no less than 100 nM.
On the same counts, the results for `CC(C)Nc1nc([C@@H](C)O)cc2cnc(Nc3ccc(CN4CCN(C(C)CO)CC4)cn3)nc12` (some centres unmarked) [Compound 644] are less than 10 nM and no less than 100 nM.
`CC(O)c1cc2cnc(Nc3ccc(OC4CCNCC4F)cn3)nc2c(NC2CCCOC2)n1` (centres unmarked) [Compound 645]: the IC50 on CDK4/cyclin D3 (setting [3]) was less than 10 nM; at CDK2/cyclin A2 (setting [4]) it was no less than 100 nM.
On the same counts, the results for `COC1CCC(Nc2nc(C(C)O)cc3cnc(Nc4ccc(OC5CCNCC5F)cn4)nc23)CC1` (centres unmarked) [Compound 646] are less than 10 nM and no less than 100 nM.
Taken in the same sequence, the figures for `CC(O)c1cc2cnc(Nc3ccc(OC4CCNCC4F)cn3)nc2c(NC2CCC(C)(C)OC2)n1` (centres unmarked) [Compound 647] were less than 10 nM and no less than 100 nM.
On the same counts, the results for `CC(C)Nc1nc([C@@H](C)O)cc2cnc(Nc3ccc(N4CCC5(CC4)CNC(=O)C5)nn3)nc12` [Compound 648] are less than 10 nM and no less than 100 nM.
In the case of `C[C@@H](O)c1cc2cnc(Nc3ccc(N4CCNCC4=O)cn3)nc2c(NC2CCC(C)(C)OC2)n1` (some centres unmarked) [Compound 649], the results for the IC50 against CDK4/cyclin D3 (setting [3]) and at CDK2/cyclin A2 (setting [4]) were less than 10 nM and no less than 100 nM, respectively.
`COC1CCC(Nc2nc([C@@H](C)O)cc3cnc(Nc4ccc(N5CCNCC5=O)cn4)nc23)CC1` (some centres unmarked) [Compound 650]: the figures for the IC50 on CDK4/cyclin D3 (setting [3]) and at CDK2/cyclin A2 (setting [4]) were less than 10 nM and no less than 100 nM, respectively.
On the same counts, the results for `CC(C)Nc1nc([C@@H](C)O)cc2cnc(Nc3ccc4c(n3)CCN(C(=O)CO)C4)nc12` [Compound 651] are less than 10 nM and no less than 100 nM.
Taken in the same sequence, the figures for `C[C@@H](O)c1cc2cnc(Nc3ccc4c(n3)CCN(C(=O)CO)C4)nc2c(N[C@H]2CC[C@H](C)CC2)n1` [Compound 652] were less than 10 nM and no less than 100 nM.
In the case of `C[C@@H](O)c1cc2cnc(Nc3ccc4c(n3)CCN(C(=O)CO)C4)nc2c(N[C@H]2CC[C@@H](C)CC2)n1` [Compound 653], the values for the IC50 on CDK4/cyclin D3 (setting [3]) and on CDK2/cyclin A2 (setting [4]) were less than 10 nM and no less than 100 nM, respectively.
With `C[C@@H](O)c1cc2cnc(Nc3ccc4c(n3)CCN(C(=O)CO)C4)nc2c(NC2CCC(C)(C)CC2)n1` [Compound 654], the IC50 against CDK4/cyclin D3 (setting [3]) is less than 10 nM; on CDK2/cyclin A2 (setting [4]), no less than 100 nM.
For `CC(C)Nc1nc([C@@H](C)O)cc2cnc(Nc3cc4c(cn3)CN(C(=O)CO)CC4)nc12` [Compound 655], the values for the IC50 on CDK4/cyclin D3 (setting [3]) and against CDK2/cyclin A2 (setting [4]) were 10 to 100 nM and no less than 100 nM, respectively.
`CC(C)Nc1nc([C@@H](C)O)cc2cnc(Nc3ccc4c(n3)CN(C(=O)CO)C4)nc12` [Compound 656]: the values for the IC50 at CDK4/cyclin D3 (setting [3]) and against CDK2/cyclin A2 (setting [4]) were less than 10 nM and no less than 100 nM, respectively.
For the molecule `CC(C)Nc1nc([C@@H](C)O)cc2cnc(Nc3ccc(N4CCN(C(C)(C)C(=O)O)CC4)nn3)nc12` [Compound 657], the IC50 is less than 10 nM against CDK4/cyclin D3 (setting [3]) and no less than 100 nM against CDK2/cyclin A2 (setting [4]).
On the same counts, the results for `C[C@@H](O)c1cc2cnc(Nc3ccc(N4CCNCC4=O)cn3)nc2c(NC2CCC(C)(C)CC2)n1` [Compound 658] are less than 10 nM and no less than 100 nM.
Taken in the same sequence, the figures for `CC(C)Nc1nc([C@@H](C)O)cc2cnc(Nc3ccc(N4CCN(C(=O)CO)CC4)nn3)nc12` [Compound 659] were less than 10 nM and no less than 100 nM.
Turning to `CC(C)Nc1nc([C@@H](C)O)cc2cnc(Nc3ccc(N4CCC(CO)CC4)nn3)nc12` [Compound 660], the IC50 against CDK4/cyclin D3 (setting [3]) was less than 10 nM; at CDK2/cyclin A2 (setting [4]), no less than 100 nM.
On the same counts, the results for `CC(C)Nc1nc([C@@H](C)O)cc2cnc(Nc3ccc(N4CC[C@@H](O)C4)nn3)nc12` [Compound 661] are less than 10 nM and no less than 100 nM.
